The record followed here is US20100273868A1, “R-Zileuton for Use in Conditions Associated with Increased 5-Lipoxygenase and/or Leukotriene Activity (EG Asthma)” (Cornerstone Therapeutics Inc., priority 2007, published 2010).

Broadly, the AUC is concentration integrated over time. As usually defined, the inhibition is the drop in the measured response relative to a control, in per cent. In general, pIC50 refers to the negative decadic logarithm of the IC50, by convention in mol/L.

pIC50: −log10 of the molar value.

Series [1] can be described thus: Plasma concentration-time profile (AUC) after oral dosing to dogs. Format: in vivo, beagle dogs. Particulars: for AUC: beagle, dog, plasma, gelcaps. The protocol: The plasma concentration-time profiles for racemic zileuton and (R)-zileuton were evaluated in beagle dogs dosed orally with either 10 mg/kg racemic zileuton or 5 mg/kg (R)-zileuton in gelcaps. Following oral dosing blood samples were collected from the test animals into sodium-EDTA anticoagulant tubes at selected time points up to 48 hours post-dose, processed into plasma and analysed by an LC-MS/MS method for zileuton concentration. The LC-MS/MS method utilized a 0.1% trifluoroacetic in water and methanol gradient HPLC system (initial 45:55 to 10:90% over 4 minutes with a Zorbax SB-C18 4.6×30 mm column at a flow rate of 1.5 mL/min). The retention time of zileuton was 2.0 minutes. A stable labeled version of zileuton was used to internally standardize the analysis. Mass spectrometer analysis by electrospray ionization of the HPLC eluent was performed in SRM mode (ESI 3.5 kV; tube lens voltage 71.0; capillary offset 40.3; L11-24.3; capillary temperature 350° C.; dwell 100 msec; collision energy 15 eV). Plasma concentrations of zileuton in the test samples were estimated by interpolation of sample peak area/height data from a standard concentration-peak area/height plot. The area under the plasma concentration-time (AUC) was calculated by non-compartmental pharmacokinetic analysis (WinNonlin, Pharsight, Mountain View, Calif.) using the trapezoidal rule.

Series [2] concerns LTB4 production in canine whole blood. As to the kind of experiment: Ex vivo inhibition of A23187-stimulated LTB4 production in canine whole blood after oral dosing. Particulars: Canis lupus familiaris, dogs; for inhibition at 5 mg/kg: 5 mg/kg oral; for inhibition at 10 mg/kg: 10 mg/kg oral. Here is the method: To determine the pharmacodynamics of racemic and (R)-zileuton, ex vivo, in fresh canine whole blood, a 0.5 ml aliquot was removed from each pharmacokinetic sample of the study. Each 0.5 ml aliquot of blood was placed into an individually-labeled, 1.5 ml polypropylene tube. Five (5) μl of a 5 mM calcium ionophore A23187 solution (in DMSO) was added to each sample and mixed for 10 seconds on a vortex. Final concentration of A23187 in whole blood was 50 μM (final DMSO concentration was 1%). After mixing, each sample was placed into a 37° C. circulating water bath and allowed to incubate for 30 minutes. […] After incubation, each sample was removed from the water bath and immediately placed onto wet ice for 2 minutes. The samples were removed from the ice after 2 minutes and immediately centrifuged in an Eppendorf Microfuge (VWR Scientific, USA) at 14,000 rpm for 2 minutes at ambient room temperature. After centrifugation, the supernatant (plasma) was collected, diluted into EIA buffer (1M phosphate buffer, pH 7.4) then stored at −80° C. until assay. The level of LTB4 was analyzed by enzyme immunoassay (Cayman Chemical Co., Ann Arbor, Mich.).

Series [3] concerns LTB4 production in human whole blood. As to the kind of experiment: Human whole blood assay of LTB4 inhibition. The series is classed as cell-based. Particulars: for pIC50: A23187 50 μM. The protocol:
The potency of racemic and (R)-zileuton was assessed in fresh human whole blood essentially by the methods of Carter et al., J. Pharm. Exp. Ther. 1991: 256:929. Briefly, 0.5.ml of heparinized (20 USP U/ml) human blood from each donor was incubated with vehicle (DMSO), or various concentrations of racemic zileuton, (R)-zileuton or (S)-zileuton (prepared in DMSO) for fifteen minutes at 37° C. Eicosanoid biosynthesis was initiated by the addition of calcium ionophore A23187 in DMSO to a final concentration of 50 μM (final DMSO concentration of 1%). Samples were incubated for an additional 30 minutes at 37° C. in the presence of A23187. The reaction was terminated by cooling in an ice bath for 2 minutes followed by centrifugation. The plasma was then salvaged to an EIA buffer (1M phosphate buffer, pH 7.4) then stored at −80° C. until assay. The level of LTB4 was analyzed by enzyme immunoassay.

Series [4] deals with infiltration of inflammatory cells to the airways. As to the kind of experiment: Mouse model of asthma, ovalbumin challenge, BAL 8 h after final challenge (Example 5). Format: in vivo, BALB/c mice. Particulars: for inhibition of eosinophils in BAL fluid / inhibition of neutrophil infiltration in BAL fluid / inhibition of the increase in total cellularity of BAL fluid: 4 mg/kg; for efficacy compared with racemic zileuton or S(−) zileuton: 2 or 4 mg/kg oral once a day. The protocol:
Male BALB/c mice were obtained from Taconic Labs (Taconic, N.Y.) and maintained on an OVA-free (ovalbumin-free) diet. After equilibration of at least 5 days, animals were sensitized to OVA and then challenged by the following procedure. On days 1 and 14, sensitization was performed by intraperitoneal (ip) injections of 10 μg OVA emulsified in 2 mg Al(OH)3 (aluminum hydroxide (Aldrox)) in a volume of […]. On days 29, 30 and 31, allergen challenge was performed via intranasal instillation of 20 μL (10 μL/nare) of OVA (1 mg/mL) under light isoflurane anesthesia.
The background control group received no sensitization and no challenge. The sham control group underwent the OVA sensitization procedure, but was challenged with PBS. The vehicle control group was used to determine the maximal response level achievable.
Animals were given Zileuton (at 2 or 4 mg/kg, by mouth (po), once daily (qd)) or (orally) 30 minutes prior to each ovalbumin challenge. Eight hours after the final ovalbumin challenge, animals were sacrificed and bronchoalveolar lavage (BAL) was performed. A tracheal tube was inserted into the trachea and the lungs were lavaged 2 times with pyrogen-free, sterile, PBS containing 0.01% EDTA and 0.05% BSA (Bovine serum albumin). Lavage fluid, maintained at room temperature, was slowly injected into the lungs; lungs were manually massaged to distribute fluid for 30 seconds, bronchoalveolar lavage fluid (BALF) was slowly withdrawn and salvaged to individually-labeled, sterile, polypropylene tubes. The procedure was repeated 2 times/animal and the lavage fluids were pooled. The magnitude of the infiltration of inflammatory cells to the airways was determined by flow cytometry.

Series [5] deals with cellular infiltration of airways. The series can be described thus: Murine model of allergic lung inflammation, ovalbumin challenge, BAL 24 h after final challenge (Example 4). The series is classed as in vivo, BALB/c mice. Conditions: oral. The protocol: Male, BALB/c mice were sensitized intraperitoneally (i.p.) with ovalbumin (10 μg) on days 1 and 14. To provoke an allergic lung inflammatory response, the mice received three intransal (i.n.) challenges with ovalbumin (100 μg) (or saline for sham) on days 29, 30 and 31. After sensitization period, animals were treated orally 30 minutes prior to ovalbumin challenge on days 29, 30 and 31 according to the following regimes: racemic Zileuton (10 mg/kg, four times daily (qid)), Montelukast (0.17 mg/kg, once daily (qd)), Dexamethasone (4 mg/kg, once daily (qd)). Twenty-four hours following the final challenge (n=16 per group, pool of two separate studies), animals were sacrificed and bronchoalveolar lavage (BAL) was performed. Infiltration of airways by inflammatory cells was quantified by cytospin, microscopy and/or flow cytometry. The dose levels and frequencies of zileuton and montelukast were chosen to approximate the human clinical use. Zileuton, Montelukast and Dexamethasone were compared to their respective “qid” and “qd” controls.

In the case of `C[C@H](c1cc2ccccc2s1)N(O)C(N)=O` [(R)-zileuton], in series [1] (FIG. 1), the “share of the racemic zileuton AUC” value is recorded as 58%. This molecule also displayed an AUC in series [1] (5 mg/kg po) of 52000 ng·h/mL. In series [2] (36 hours after administration), the inhibition at 5 mg/kg was about 74%. The inhibition at 5 mg/kg in series [2] (time points between 60 minutes and 24 hours after administration) was over 91%. In series [3], the “S(−) zileuton IC50/R(+) zileuton IC50 ratio” value was found to be 11.9 and the pIC50 is 6.40. For the same molecule, the “inhibition of the total cell infiltration” value in series [4] (2 mg/kg, po, qd, versus vehicle control) is given as 66%. Moreover, in series [4] (po, qd, versus vehicle control), the “inhibition of eosinophils in BAL fluid” value is reported as 75%, the “inhibition of neutrophil infiltration in BAL fluid” value turned out to be 65% and the “inhibition of the increase in total cellularity of BAL fluid” value (“inhibition of the increase” below) worked out at 85%. Moreover, the “efficacy compared with racemic zileuton or S(−) zileuton” value in series [4] is reported as “significantly greater efficacy than racemic zileuton”. Further, the “efficacy compared with racemic zileuton or S(−) zileuton” value in series [4] (listed as R(+) zileuton) is given as “greater efficacy”.

`C[C@@H](c1cc2ccccc2s1)N(O)C(N)=O` [(S)-zileuton] gave a pIC50 in series [3] of 5.32. In series [4] (po, qd, versus vehicle control), the “inhibition of eosinophils in BAL fluid” value turned out to be 51%, the “inhibition of neutrophil infiltration in BAL fluid” value turned out to be 35% and the “inhibition of the increase” value is on record as “not significantly effective”.

On to `CC(c1cc2ccccc2s1)N(O)C(N)=O` (racemic) [racemic zileuton, (±)-1-(1-Benzo[b]thien-2-ylethyl)-1-hydroxyurea], for which, in series [1] (10 mg/kg po), the AUC amounted to 87000 ng·h/mL. The inhibition at 10 mg/kg in series [2] (36 hours after administration) is about 84%. The molecule also returned an inhibition at 10 mg/kg in series [2] (time points between 30 minutes and 24 hours after administration) of 100%. The pIC50 in series [3] is 6.13. Moreover, in series [5] (10 mg/kg, qid), the “% Inhibition Eosinophils” value is 99.2 ± 0.02%, the “% Inhibition Neutrophils” value is 87.9 ± 2.3% and the “% Inhibition Total cells” value worked out at 62.2 ± 1.7%. In series [4] (po, qd, versus vehicle control), the “inhibition of eosinophils in BAL fluid” value is recorded as 67%, the “inhibition of neutrophil infiltration in BAL fluid” value came to 54% and the “inhibition of the increase” value was determined as 66%.

For the molecule `C[C@@H]1C[C@H]2[C@@H]3CCC4=CC(=O)C=C[C@]4(C)[C@@]3(F)[C@@H](O)C[C@]2(C)[C@@]1(O)C(=O)CO` [Dexamethasone], in series [5] (4 mg/kg, qd), the “% Inhibition Eosinophils” value amounted to 99.2 ± 0.02%, the “% Inhibition Neutrophils” value was found to be 90.5 ± 1.1% and the “% Inhibition Total cells” value turned out to be 62.5 ± 1.5%.

Regarding `CC(C)(O)c1ccccc1CC[C@@H](SCC1(CC(=O)O)CC1)c1cccc(/C=C/c2ccc3ccc(Cl)cc3n2)c1` [Montelukast], in series [5] (0.17 mg/kg, qd), the “% Inhibition Eosinophils” value worked out at 99.2 ± 0.02%, the “% Inhibition Neutrophils” value stood at 23.3 ± 6.6% and the “% Inhibition Total cells” value was found to be 53.3 ± 6.5%.
